Bounds are passed on as bounds.

The test system of one test is PDE4. The experiment in a line: PDE4 inhibition, scintillation proximity assay (SPA).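 For PDE4 Inhibitory Activity (concentration for the inhibition rate of 50%): A below 100 nM B 100 to below 1000 nM C 1000 nM or more.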 Type of test: biochemical. The following applies: scintillation proximity assay (SPA); evaluated as classes A, B, C; read-out: PDE4 Inhibitory Activity (concentration for the inhibition rate of 50%). The gist of the method:
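Scintillation proximity read-out: [2,8-3H]-cAMP hydrolysis by PDE4 ran 120 min at room temperature in Tris-HCl pH 7.4 buffer with 8.3 mM MgCl2, 1.7 mM EGTA and 3 mg/mL BSA. Bead-bound product (YSi-SPA with ZnSO4, 15 min) counted; blank lacks enzyme, control has DMSO only.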
Background: Scintillation proximity formats need no separation of bound from free tracer.
In the case of `CC(O)c1cc(-c2nccs2)c2oc(N3CC4CC(C3)N4)nc2c1OC(F)(F)F` (stereo not shown) [Example 272, 1-(2-(3,6-Diazabicyclo[3.1.1]heptan-3-yl)-7-(thiazol-2-yl)-4-(trifluoromethoxy)benzo[d]oxazol-5-yl)ethan-1-ol], the IC50 is below 100 nM.

As to `CC(O)C(F)(F)OC(c1ccc(-c2nccs2)c2oc(N3CC4CC(C3)N4)nc12)C(F)(F)F` (stereo not shown) [Example 265, 1-(1-(2-(3,6-Diazabicyclo[3.1.1]heptan-3-yl)-7-(thiazol-2-yl)benzo[d]oxazol-4-yl)-2,2,2-trifluoroethoxy)-1,1-difluoropropan-2-ol], the IC50 is below 100 nM.

Take `FC(F)(F)c1c(Cl)cc(-n2cccn2)c2oc(N3CC4COCC(C3)N4)nc12` [Example 18, 7-(5-Chloro-7-(1H-pyrazol-1-yl)-4-(trifluoromethyl)benzo[d]oxazol-2-yl)-3-oxa-7,9-diazabicyclo[3.3.1]nonane]: the IC50 lay in the range of 100 to 1000 nM.

Regarding `OC(c1cc(-c2nccs2)c2oc(N3CC4CCC(C3)N4)nc2c1)C(F)(F)F` (racemic) [Example 137, 1-(2-(3,8-Diazabicyclo[3.2.1]octan-3-yl)-7-(thiazol-2-yl)benzo[d]oxazol-5-yl)-2,2,2-trifluoroethan-1-ol], the IC50 is below 100 nM.

Regarding `CC(C)(O)c1cc(-c2nccs2)c2oc(N3CC4CCC(C3)N4)nc2c1` [Example 172, 2-(2-(3,8-Diazabicyclo[3.2.1]octan-3-yl)-7-(thiazol-2-yl)benzo[d]oxazol-5-yl)propan-2-ol], the IC50 is below 100 nM.

For the molecule `N#CCOc1cc(-c2nccs2)c2oc(N3CC4CCC(C3)N4)nc2c1` [Example 73, 2-((2-(3,8-Diazabicyclo[3.2.1]octan-3-yl)-7-(thiazol-2-yl)benzo[d]oxazol-5-yl)oxy)acetonitrile], the IC50 was below 100 nM.

On to `COC(c1cc(-c2nccs2)c2oc(N3CC4CCC(C3)N4)nc2c1)C(F)(F)F` (stereo not shown) [Example 143, 2-(3,8-Diazabicyclo[3.2.1]octan-3-yl)-7-(thiazol-2-yl)-5-(2,2,2-trifluoro-1-methoxyethyl)benzo[d]oxazole], for which the IC50 was below 100 nM.

For `NS(=O)(=O)c1cc(-c2nccs2)c2oc(N3CC4CC(C3)N4)nc2c1` [Example 58, 2-(3,6-Diazabicyclo[3.1.1]heptan-3-yl)-7-(thiazol-2-yl)benzo[d]oxazole-5-sulfonamide], the IC50 was below 100 nM.

Turning to `Clc1ccc(-c2nccs2)c2oc(N3CC4CCCC(C3)N4)nc12` [Example 38, 2-(3,9-Diazabicyclo[3.3.1]nonan-3-yl)-4-chloro-7-(thiazol-2-yl)benzo[d]oxazole], the IC50 is below 100 nM.

Turning to `CC(C)C(O)c1cc(-c2nccs2)c2oc(N3CC4CCC(C3)N4)nc2c1OC(F)(F)F` (stereo not shown) [Example 205, 1-(2-(3,8-Diazabicyclo[3.2.1]octan-3-yl)-7-(thiazol-2-yl)-4-(trifluoromethoxy)benzo[d]oxazol-5-yl)-2-methylpropan-1-ol], the IC50 was below 100 nM.

Consider `CC(C)c1cc(-c2nccs2)c2oc(N3CC4CCC(C3)N4)nc2c1` [Example 21, 2-(3,8-Diazabicyclo[3.2.1]octan-3-yl)-5-isopropyl-7-(thiazol-2-yl)benzo[d]oxazole], for which the IC50 is below 100 nM.

With `CNC(=O)c1cc(-c2nccs2)c2oc(N3CC4CCC(C3)N4)nc2c1` [Example 100, 2-(3,8-Diazabicyclo[3.2.1]octan-3-yl)-N-methyl-7-(thiazol-2-yl)benzo[d]oxazole-5-carboxamide], the IC50 is below 100 nM.

`CC(O)(c1ccc(-c2nccs2)c2oc(N3CC4CC(C3)N4)nc12)C(F)(F)F` (stereo not shown) [Example 271, 2-(2-(3,6-Diazabicyclo[3.1.1]heptan-3-yl)-7-(thiazol-2-yl)benzo[d]oxazol-4-yl)-1,1,1-trifluoropropan-2-ol]: the IC50 is below 100 nM.

`CCOC(=O)c1ccc(-c2nccs2)c2oc(N3CC4CCCC(C3)N4)nc12` [Example 114, Ethyl 2-(3,9-diazabicyclo[3.3.1]nonan-3-yl)-7-(thiazol-2-yl) benzo[d]oxazole-4-carboxylate]: the IC50 was below 100 nM.

Turning to `OC1(c2cc(-c3cscn3)c3oc(N4CC5CC(C4)N5)nc3c2OC(F)(F)F)CC1` [Example 299, 1-(2-(3,6-Diazabicyclo[3.1.1]heptan-3-yl)-7-(thiazol-4-yl)-4-(trifluoromethoxy)benzo[d]oxazol-5-yl)cyclopropan-1-ol], the IC50 is below 100 nM.

Consider `OC(c1cc(-c2nccs2)c2oc(N3CC4CCC(C3)N4)nc2c1OC(F)(F)F)C(F)F` (stereo not shown) [Example 275, 1-(2-(3,8-Diazabicyclo[3.2.1]octan-3-yl)-7-(thiazol-2-yl)-4-(trifluoromethoxy)benzo[d]oxazol-5-yl)-2,2-difluoroethan-1-ol], for which the IC50 is below 100 nM.

On to `OC1(COC(c2ccc(-c3cscn3)c3oc(N4CC5CC(C4)N5)nc23)C(F)(F)F)CC1` (stereo not shown) [Example 286, 1-((1-(2-(3,6-Diazabicyclo[3.1.1]heptan-3-yl)-7-(thiazol-4-yl)benzo[d]oxazol-4-yl)-2,2,2-trifluoroethoxy)methyl)cyclopropan-1-ol], for which the IC50 was below 100 nM.

Consider `OC(O)(c1cc(-c2nccs2)c2oc(N3CC4CCC(C3)N4)nc2c1)C(F)(F)F` [Example 157, 1-(2-(3,8-Diazabicyclo[3.2.1]octan-3-yl)-7-(thiazol-2-yl)benzo[d]oxazol-5-yl)-2,2,2-trifluoroethane-1,1-diol], for which the IC50 was below 100 nM.

In the case of `COc1cc(-c2nccs2)c2oc(N3CC4CC(C3)N4)nc2c1` [Example 61, 2-(3,6-Diazabicyclo[3.1.1]heptan-3-yl)-5-methoxy-7-(thiazol-2-yl)benzo[d]oxazole], the IC50 was below 100 nM.

Consider `Oc1cc(-c2nccs2)c2oc(N3CC4CC(C3)N4)nc2c1` [Example 64, 2-(3,6-Diazabicyclo[3.1.1]heptan-3-yl)-7-(thiazol-2-yl)benzo[d]oxazol-5-ol], for which the IC50 is below 100 nM.

`FC(F)(F)Oc1c(Cl)cc(-c2ccco2)c2oc(N3CC4CCC(C3)N4)nc12` [Example 6, 2-(3,8-Diazabicyclo[3.2.1]octan-3-yl)-5-chloro-7-(furan-2-yl)-4-(trifluoromethoxy)benzo[d]oxazole]: the IC50 was below 100 nM.

As to `CC(C)(O)c1cc(-c2nccs2)c2oc(N3CC4CC(C3)N4)nc2c1C(F)(F)F` [Example 178, 2-(2-(3,6-Diazabicyclo[3.1.1]heptan-3-yl)-7-(thiazol-2-yl)-4-(trifluoromethyl)benzo[d]oxazol-5-yl)propan-2-ol], the IC50 was below 100 nM.

As to `OC(c1cc(-c2cscn2)c2oc(N3CC4CC(C3)N4)nc2c1OC(F)(F)F)C(F)F` (stereo not shown) [Example 301, 1-(2-(3,6-Diazabicyclo[3.1.1]heptan-3-yl)-7-(thiazol-4-yl)-4-(trifluoromethoxy)benzo[d]oxazol-5-yl)-2,2-difluoroethan-1-ol], the IC50 is below 100 nM.

For the molecule `CC(O)c1ccc(-c2nccs2)c2oc(N3CC4CC(C3)N4)nc12` (stereo not shown) [Example 240, 1-(2-(3,6-Diazabicyclo[3.1.1]heptan-3-yl)-7-(thiazol-2-yl)benzo[d]oxazol-4-yl)ethan-1-ol], the IC50 is below 100 nM.

Take `O=C(c1cc(-c2nccs2)c2oc(N3CC4CCC(C3)N4)nc2c1)N1CCOCC1` [Example 95, (2-(3,8-Diazabicyclo[3.2.1]octan-3-yl)-7-(thiazol-2-yl)benzo[d]oxazol-5-yl)(morpholino)methanone]: the IC50 is below 100 nM.

In the case of `CC(C)c1cc(-c2nccs2)c2oc(N3CC4COCC(C3)N4)nc2c1` [Example 23, 7-(5-Isopropyl-7-(thiazol-2-yl)benzo[d]oxazol-2-yl)-3-oxa-7,9-diazabicyclo[3.3.1]nonane], the IC50 was in the range of 100 to 1000 nM.

As for `NS(=O)(=O)c1cc(-c2nccs2)c2oc(N3CC4CCC(C3)N4)nc2c1` [Example 57, 2-(3,8-Diazabicyclo[3.2.1]octan-3-yl)-7-(thiazol-2-yl) benzo[d]oxazole-5-sulfonamide], the IC50 is below 100 nM.

Staying with this test, now noted: scintillation proximity assay; class symbols; read-out: PDE4 Inhibitory Activity.
Regarding `CC(O)c1cc(-c2nccs2)c2oc(N3CC4CCC(C3)N4O)nc2c1C(F)(F)F` (stereo not shown) [Example 384, 3-(5-(1-hydroxy-ethyl)-7-(thiazol-2-yl)-4-(trifluoro-methyl)benzo[d]oxazol-2-yl)-3,8-diazabicyclo[3.2.1] octan-8-ol], the IC50 was above 1000 nM.

On to `FC(F)(Oc1ccc(-c2nccs2)c2oc(N3CC4CC(C3)N4)nc12)c1nc2ccccc2o1` [Example 403, 4-(benzo [d]oxazol-2-yldifluoro-methoxy)-2-(3,6-diazabicyclo [3.1.1]heptan-3-yl)-7-(thiazol-2-yl)benzo[d] oxazole], for which the IC50 is below 100 nM.

In the case of `CN(CCO)C(=O)C(F)(F)Oc1ccc(-c2nccs2)c2oc(N3CC4CC(C3)N4)nc12` [Example 407, 2-((2-(3,6-diazabicyclo [3.1.1]heptan-3-yl)-7-(thiazol-2-yl)benzo[d]oxazol-4-yl)oxy)-2,2-difluoro-N-(2-hydroxy-ethyl)-N-methyl-acetamide], the IC50 is below 100 nM.

Take `CSc1ccc(-c2nccs2)c2oc(N3CC4CC(C3)N4)nc12` [Example 345, 2-(3,6-diazabicyclo[3.1.1]heptan-3-yl)-4-(methylthio)-7-(thiazol-2-yl)benzo [d]oxazole]: the IC50 is below 100 nM.

In the case of `CC(O)c1cc(-c2nccs2)c2oc(N3CC4CCC(C3)N4O)nc2c1OC(F)(F)F` (stereo not shown) [Example 383, 3-(5-(1-hydroxy-ethyl)-7-(thiazol-2-yl)-4-(trifluoro-methoxy)benzo [d]oxazol-2-yl)-3,8-diazabicyclo[3.2.1] octan-8-ol], the IC50 was above 1000 nM.

On to `CC(C)C(O)C(F)(F)Oc1ccc(-c2nccs2)c2oc(N3CC4CC(C3)N4)nc12` (stereo not shown) [Example 362, 1-((2-(3,6-diazabicyclo [3.1.1]heptan-3-yl)-7-(thiazol-2-yl)benzo[d]oxazol-4-yl)oxy)-1,1-difluoro-3-methylbutan-2-ol], for which the IC50 was below 100 nM.

For `NS(=O)(=O)c1ccc(-c2nccs2)c2oc(N3CC4CC(C3)N4)nc12` [Example 396, 2-(3,6-diazabicyclo[3.1.1]heptan-3-yl)-7-(thiazol-2-yl) benzo[d]oxazole-4-sulfonamide], the IC50 is below 100 nM.

(Values after patent publication US10669283B2, “Compound and pharmacologically acceptable salt thereof” (MEIJI SEIKA PHARMA CO., LTD., priority 2016, dated 2020).)
